Data as given in patent US10492518B2, “Blood lipid-lowering composition, method for preparing the same and use thereof” (INFINITUS (CHINA) COMPANY LTD., priority 2018, dated 2019).

Tested on: mixed hyperlipidemia model in SD rat
Test: Test of the blood lipid-lowering efficacy: serum TC, TG, HDL-C, LDL-C and apo-A1 after 30 days oral administration
Format: in vivo
Conditions: positive control, atorvastatin calcium 0.83 mg/Kg oral, high fat diet SD rats
Description: Experiment object: compositions of examples 1 to 4, single component group (500 mg of echium seed oil), and two positive control groups: fish oil group (180 mg of EPA and 120 mg of DHA in each 1000 mg oil fish, purchased from Amway), and atorvastatin calcium group (each tablet was 20 mg containing 10 mg of active ingredient atorvastatin calcium, purchased from Pfizer Pharmaceutical Co., Ltd.).
Reference was made to the test method of adjunctive blood lipid-lowering function in the Technical specification for health care food inspection and evaluation. The SPF grade male SD rats were chosen as the experimental animals. After the adaptation period, an animal model of mixed hyperlipidemia was established, and the rats were randomly divided into groups according to the TC level.
There were three dosage groups, two positive control groups, one blank control group and one model control group. In low-dosage group, the dosage of the test sample was equal to 5 times ([…]) of the recommended amount for human; for the other two dosage groups, the dosages were respectively equal to 10 times (333.33 mg/kg) and 25 times (833.33 mg/kg) of the recommended amount for human. The dosage of the positive control group was equal to 5 times of the recommended amount for human (fish oil: 150 mg/Kg; atorvastatin calcium 0.83 mg/Kg). The blank control group and the model control group were administered with distilled water of the same volume by intragastric gavage. Each of the groups was weighed regularly. 30 days after the administration, blood samples were collected from the rats without fasting, and the serums were separated. TC (total cholesterol), TG (total triglyceride), (high-density lipoprotein cholesterol) and apo-A1 (apolipoprotein A1) were tested. The methods were illustrated in details hereinafter.
Adaptation period: in a barrier system the rats were fed for regular feed and observed for 5 to 7 days.
The rats were randomly divided into 22 groups according to the weight, 6 rats per group. One group of rats was fed with regular feed as the blank control group. The other 21 groups were fed with high fat diet as the model control group. All rats were weighed once a week.
20 days after the model control groups were fed with high fat diet, blood samples (1 to 1.5 mL of blood from the tail vein) were collected from the rats of the blank control group and the model control group without fasting. After the blood collection, the serum were quickly separated and transferred to a new centrifuge tube, and then cryopreserved at −20° C. for test. ELISA test kits for cholesterol, triglyceride, HDL-cholesterol and LDL-cholesterol were used to test the levels of TC, TG, LDL-C and HDL-C in the rat serum. […]

SMILES: CC(C)c1c(C(=O)Nc2ccccc2)c(-c2ccccc2)c(-c2ccc(F)cc2)n1CC[C@@H](O)C[C@@H](O)CC(=O)[O-].CC(C)c1c(C(=O)Nc2ccccc2)c(-c2ccccc2)c(-c2ccc(F)cc2)n1CC[C@@H](O)C[C@@H](O)CC(=O)[O-].[Ca+2] [Atorvastatin Calcium, atorvastatin calcium]
- Serum HDL-C, Mean Value ± Standard Deviation: 919.74 ± 150.63 µmol/L
- Serum LDL-C, Mean Value ± Standard Deviation: 853.24 ± 236.19 µmol/L
- Serum total cholesterol (TC), Mean Value ± Standard Deviation: 1117.14 ± 171.07 µmol/L
- Serum triglyceride (TG), Mean Value ± Standard Deviation: 189.71 ± 45.83 µmol/L
